Source: patent US11401253B2, “16-methyl-oxacyclohexadecan-2-one and 16-methyl-azacyclohexadecan-2-one derivatives as antimicrobial agents” (THE UNIVERSITY OF MONTANA, priority 2017, dated 2022)
Values after ≈ are worked out from the molar mass of the structure shown. Values joined by “and” are separate entries in the source; they are usually repeats but may differ in a detail not shown here. Identical values can stand only once. “Also recorded” adds a separate entry of the source.

Columns and labels:
K. pneumoniae (10031) = assay: Antibiotic testing (MIC), gram negative K. pneumoniae; type: cell-based; conditions: for MIC: Klebsiella pneumoniae, read-out: MIC, K. pneumoniae (10031)
Method: (§1) None of this collection of compounds were active against Gram-negative bacteria
(§2) Additionally, BPL 76 and derivatives were tested against a panel of gram negative bacteria including K. pneumonia, P. aeruginosa and E. coli (Table 12).

Candida glabrata = assay: Antibiotic testing (MIC), Candida glabrata; type: cell-based; conditions: Nakaseomyces glabratus; growth inhibition ≥90%; read-out: minimum inhibitory concentration, Candida glabrata
B. anthracis = assay: microbe, parasite or virus in culture; type: cell-based; conditions: Bacillus anthracis, read-out: minimum inhibitory concentration, B. anthracis
[1] = tested on: Staphylococcus aureus (13709); assay: Antibiotic testing (MIC), S. aureus 13709; type: cell-based; conditions: growth inhibition ≥90% relative to drug-free controls, read-out: minimum inhibitory concentration, Staphylococcus aureus (13709)
[2] = tested on: primary human peripheral blood mononuclear cells (PBMCs); assay: Cell death in primary PBMCs; type: cell-based; conditions: highest concentration tested, 500 μg/ml
Method: Additionally the BPL76 compound was tested against primary human peripheral blood mononuclear cells (PBMCs) and induced very little cell death, with only up to 60% death induced at the highest concentration tested, 500 μg/ml (not shown).

S. aureus CAIRD142 = assay: Antibiotic testing, methicillin-resistant S. aureus CAIRD142; type: cell-based; conditions: Staphylococcus aureus, CAIRD142; methicillin-resistant strain
From the text: (§3) Both the methyl ester and the diacetate derivatives of BPL 76 slightly less but still very strong activity against the same four MRSA strains (Table 11). The activities of compounds BPL 76 and BPL 81 were compared to several known antibiotics against three methicillin-resistant strains of S. aureus [FIG. 6, comparative data provided by Hartford Hospital, Center for Anti-Infective Research and Development (CAIRD)].

[3] = tested on: Mycobacterium tuberculosis; assay: microbe, parasite or virus in culture; conditions: read-out: MIC, MABA
Streptococcus pyogenes = assay: Antibiotic testing (MIC), Streptococcus pyogenes; type: cell-based; conditions: growth inhibition ≥90%, read-out: minimum inhibitory concentration, Streptococcus pyogenes
[4] = tested on: Mycobacterium tuberculosis
C. albicans = assay: Antibiotic testing (MIC), C. albicans; type: cell-based; conditions: Candida albicans; growth inhibition ≥90%; read-out: minimum inhibitory concentration, C. albicans
Bacillus subtilis = assay: Antibiotic testing (MIC), Bacillus subtilis; type: cell-based; conditions: growth inhibition ≥90%, read-out: minimum inhibitory concentration, Bacillus subtilis
HepG2 = assay: Cytotoxicity (MTS), HepG2 cells; type: cell-based; conditions: Homo sapiens, 72 hours exposure
S. aureus CAIRD116 = assay: Antibiotic testing, methicillin-resistant S. aureus CAIRD116; type: cell-based; conditions: Staphylococcus aureus, CAIRD116; methicillin-resistant strain
From the text: as §3

[5] = tested on: Vero, HepG2 and J774 cells; assay: Cytotoxicity, mammalian cell lines (summary statement); type: cell-based
Method: Cytotoxicity for Vero, HepG2 and J774 cells were determined following 72 hours exposure to BPL76 and analogs. Cell viability was assessed on the basis of cellular conversion of MTS dye into a soluble formazan product using the Promega CellTiter 96 Aqueous Non-Radioactive Cell Proliferation Assay. After incubation at 37° C. for 72 h, medium was removed and monolayers were washed twice with 100 μl of warm Hanks' balanced salt solution (HBSS). One hundred microliters of warm medium and 20 μl of freshly made MTS-PMS [3-(4,5-dimethylthiazol-2-yl)-5-(3-carboxymethoxyphenyl)-2-(4-sulfophenyl)-2H-tetrazolium and […]](100:20) (Promega) were added to each well, plates were incubated for 3 h, and absorbance was determined at 490 nm. Viability was assessed on the basis of cellular conversion of MTS dye into a soluble formazan product using the Promega CellTiter 96 Aqueous Non-Radioactive Cell Proliferation Assay as described in Falzari K, Zhu Z, Pan D, Liu H, Hongmanee P, et al. (2005). In vitro and in vivo activities of macrolide derivatives against Mycobacterium tuberculosis were determined as described in Ekins, S, Reynolds, R C, Franzblau, S G, et al. Enhancing Hit Identification in Mycobacterium tuberculosis Drug Discovery Using Validated Dual-Event Bayesian Models PLOS ONE (2013) 8:5, e63240. […]

Enterococcus faecalis = assay: Antibiotic testing (MIC), Enterococcus faecalis; type: cell-based; conditions: growth inhibition ≥90%, read-out: minimum inhibitory concentration, Enterococcus faecalis
P. aeruginosa = assay: Antibiotic testing (MIC), gram negative P. aeruginosa; type: cell-based; conditions: Pseudomonas aeruginosa; read-out: MIC, P. aeruginosa
Method: as §1, §2

Gram-positive bacteria = assay: Antibiotic panel, Gram-positive bacteria; type: cell-based; conditions: 1 μM-1 mM/well
From the text: as §1

E. coli (25922) = assay: Antibiotic testing (MIC), gram negative E. coli; type: cell-based; conditions: for MIC: Escherichia coli, read-out: MIC, E. coli (25922)
Method: as §1, §2

J774 = assay: Cytotoxicity (MTS), J774 cells; type: cell-based, murine; conditions: Mus musculus, 72 hours exposure
[6] = Bactericidal activity (therapeutic index statement); type: cell-based
Vero cell = assay: Cytotoxicity (MTS), Vero cells; type: cell-based, monkey; conditions: Primates, 72 hours exposure
S. aureus CAIRD148 = assay: Antibiotic testing, methicillin-resistant S. aureus CAIRD148; type: cell-based; conditions: Staphylococcus aureus, CAIRD148; methicillin-resistant strain
From the text: as §3

GFP synthesis = assay: Cell-free translation assay with GFP reporter; type: biochemical; conditions: 50 μM and 250 μM, 37° C., readings for 2 hr
Method: Further assessment of the effect of BPL76 on protein translation was done using a cell-free translation assay. The plasmid pY71-sfGFP^55 (5 ng) was translated in the PUREexpress in vitro protein synthesis system (New England Biolabs). The final concentrations of erythromycin, josamycin and tylosin in the translation reactions were 50 μM. The reactions were incubated at 37° C. and fluorescence readings (excitation: 488 nm, emission, 520 nm) were taken every 20 min for 2 hr.

[7] = tested on: non-replicating persistence Mycobacterium tuberculosis (NRP-TB); assay: Low oxygen recovery assay (LORA), non-replicating persistence Mtb; type: cell-based; conditions: non-replicating persistence, hypoxic conditions; for MIC: Mycobacterium tuberculosis, read-out: MIC, LORA
S. aureus (NE277) = assay: Antibiotic testing, methicillin-resistant S. aureus NE277; type: cell-based; conditions: Staphylococcus aureus, read-out: antibiotic testing data (MIC), S. aureus (NE277)
From the text: as §3

MMP-3 = target: T1, MMP-3 (Homo sapiens, UniProt P08254); assay: MMP-3 enzyme inhibition assay; type: biochemical
T1 construct: purchased BioMol
T1 sequence (P08254 100-477): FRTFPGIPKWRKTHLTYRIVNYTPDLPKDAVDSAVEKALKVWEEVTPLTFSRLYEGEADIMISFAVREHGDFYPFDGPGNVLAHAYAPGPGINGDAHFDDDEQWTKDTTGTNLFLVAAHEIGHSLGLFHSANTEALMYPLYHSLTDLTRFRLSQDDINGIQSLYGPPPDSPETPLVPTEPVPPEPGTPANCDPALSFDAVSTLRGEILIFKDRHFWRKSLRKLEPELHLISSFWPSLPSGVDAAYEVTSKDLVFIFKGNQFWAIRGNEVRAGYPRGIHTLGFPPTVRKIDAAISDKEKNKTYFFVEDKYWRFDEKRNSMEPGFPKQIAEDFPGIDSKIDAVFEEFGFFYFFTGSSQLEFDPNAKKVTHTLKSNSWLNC
Method: The two fungi were also co-cultured under controlled conditions. P. fuscum was grown in pure culture in potato dextrose broth (10×400 mL). After 24 h, an agar cube (8 mm^3) impregnated with P. camembertii/clavigerum mycelium was added to each flask and the resulting co-culture was shaken for 6 more days (200 rpm, room temperature). At time of harvest, methanol (50 mL/flask) was added, the mycelia were removed by gravity filtration and the broth was extracted with chloroform (3×2 L). The chloroform was removed in vacuo to yield 663 mg of crude extract. The crude extract was verified to be active in the MMP-3, caspase-1 and caspase-3 enzyme inhibition assays. Enzyme inhibitory activity was determined using specific BioMol enzyme inhibition assay kits for drug discovery as described in Stierle, A; Stierle, D. The Berkeleylactones, Antibiotic Macrolides from Fungal Coculture. J. Nat. Prod. 80, 4, 1150-1160.

Row | Structure (SMILES) | MIC (K. pneumoniae (10031)) | MIC (Candida glabrata) [µg/mL] | MIC (B. anthracis) [µg/mL] | MIC [1] [µg/mL] | MIC (S. aureus CAIRD142) [µg/mL] | MIC [3] [µg/mL] | MIC (Streptococcus pyogenes) [µg/mL] | MIC (C. albicans) [µg/mL] | MIC (Bacillus subtilis) [µg/mL] | IC50 (HepG2) [µg/mL] | MIC (S. aureus CAIRD116) [µg/mL] | MIC (Enterococcus faecalis) [µg/mL] | MIC (P. aeruginosa) [µM] | MIC (E. coli (25922)) | IC50 (J774) [µg/mL] | IC50 (Vero cell) [µg/mL] | MIC (S. aureus CAIRD148) [µg/mL] | MIC [7] [µg/mL] | other results
1 | C[C@@H]1CCCCCCCCC[C@H](O)C(=O)C[C@@H](SC[C@@H](O)C(=O)O)C(=O)O1 [BPL 76, (S)-2-hydroxy-3-(((3R,6S,16R)-6-hydroxy-16-methyl-2,5-dioxooxacyclohexadecan-3-yl)thio)propanoic acid] | 1000 µM and 405 µg/mL | 6 (≈ 14.8 µM) | 3 (≈ 7.42 µM) | 1 (≈ 2.47 µM) | 2 (≈ 4.94 µM) | 25 (≈ 61.8 µM) | 3 (≈ 7.42 µM) | 26 (≈ 64.3 µM) | 13 (≈ 32.1 µM) | 64.8 (≈ 160 µM) | 1 (≈ 2.47 µM) | 13 (≈ 32.1 µM) | > 1000 | 1000 µM and 405 µg/mL | 16.8 (≈ 41.5 µM) | 61.5 (≈ 152 µM) | 1 (≈ 2.47 µM) | 24 (≈ 59.3 µM) | activity against K. pneumonia (in words) (K. pneumoniae (10031)): weakly active; cell death induced in PBMCs [2]: up to 60%; MIC, MABA [4]: ~25 µg/mL (≈ 61.8 µM); fold less active against Mtb than against MRSA [4]: 25 fold; times less potent than rifampicin against Mtb [4]: 100 ×; mammalian toxicity concentration [5]: ~60 µg/mL; activity against Gram-positive bacteria (Gram-positive bacteria): strongest activity; activity against E. coli (in words) (E. coli (25922)): weakly active; efficacious concentration to induce bactericidal activity [6]: ~1 µg/mL; effect on GFP synthesis and corresponding fluorescence (GFP synthesis): no effect at either concentration; also recorded: lack of inhibition; MIC, LORA [7]: ~24 µg/mL (≈ 59.3 µM)
2 | C[C@@H]1CCCCCCCCC[C@H](OC(=O)CCC(=O)O)C(=O)C[C@@H](SC[C@@H](O)C(=O)O)C(=O)O1 [BPL 88, 4-(((3R,6S,16R)-3-(((S)-2-carboxy-2-hydroxyethyl)thio)-16-methyl-2,5-dioxooxacyclohexadecan-6-yl)oxy)-4-oxobutanoic acid] | > 250 µM | 31 (≈ 61.4 µM) | 8 (≈ 15.9 µM) | 4 (≈ 7.93 µM) | 15 (≈ 29.7 µM) | > 100 | 119 (≈ 236 µM) | > 119 | 31 (≈ 61.4 µM) | > 100 | 15 (≈ 29.7 µM) | 31 (≈ 61.4 µM) | > 250 | > 250 µM | 42.5 (≈ 84.3 µM) | > 100 | 8 (≈ 15.9 µM) | 46 (≈ 91.2 µM) | MIC (S. aureus (NE277)): 8 µg/mL (≈ 15.9 µM); MMP-3 inhibition (MMP-3): weaker inhibitors
